{"source": "patent US12102648B2", "about": "“Orally-bioavailable nucleoside analogs” (priority 2021, dated 2024)", "data": [{"experiment": "in vitro", "assay_type": "in vitro ADME", "conditions": "human, Caco-2", "summary_of_the_method": "(§1)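 Caco-2 monolayers cultured 19 days on inserts (TEER >600 […]); bidirectional A-to-B and B-to-A transport at 37° C over 90 min, samples quantified by LC/MS/MS. Papp, efflux ratio and recovery calculated; ER >2 flags potential efflux substrates.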", "units": {"Papp A→B at 90 min": "×10⁻⁶ cm/s", "Papp B→A at 90 min": "×10⁻⁶ cm/s"}, "values": [{"smiles": "N#C[C@@]1(c2ccc3c(N)ncnn23)O[C@H](COC(=O)CC2CCOCC2)[C@@H](O)[C@H]1O", "note": "[Compound 257, ((2R,3S,4R,5R)-5-(4-aminopyrrolo[2,1-f][1,2,4]triazin-7-yl)-5-cyano-3,4-dihydroxytetrahydrofuran-2-yl)methyl 2-(tetrahydro-2H-pyran-4-yl)acetate]", "Papp A→B at 90 min": 0.03, "Papp B→A at 90 min": 1.4, "efflux ratio at 90 min": 46}, {"smiles": "N#C[C@@]1(c2ccc3c(N)ncnn23)O[C@H](COC(=O)CC2CC2)[C@@H](O)[C@H]1O", "note": "[Compound 258, [(2R,3S,4R,5R)-5-{4-aminopyrrolo[2,1-f][1,2,4]triazin-7-yl}-5-cyano-3,4-dihydroxyoxolan-2-yl]methyl 2-cyclopropylacetate]", "Papp A→B at 90 min": 0.09, "Papp B→A at 90 min": 0.3, "efflux ratio at 90 min": 3.5}, {"smiles": "N#C[C@@]1(c2ccc3c(N)ncnn23)O[C@H](COC(=O)CC2CCCC2)[C@@H](O)[C@H]1O", "note": "[Compound 259, ((2R,3S,4R,5R)-5-(4-aminopyrrolo[2,1-f][1,2,4]triazin-7-yl)-5-cyano-3,4-dihydroxytetrahydrofuran-2-yl)methyl 2-cyclopentylacetate]", "Papp A→B at 90 min": 2, "Papp B→A at 90 min": 0.6, "efflux ratio at 90 min": 0.3}, {"smiles": "N#C[C@@]1(c2ccc3c(N)ncnn23)O[C@H](COC(=O)CC2CCCCCC2)[C@@H](O)[C@H]1O", "note": "[Compound 261, ((2R,3S,4R,5R)-5-(4-aminopyrrolo[2,1-f][1,2,4]triazin-7-yl)-5-cyano-3,4-dihydroxytetrahydrofuran-2-yl)methyl 2-cycloheptylacetate]", "Papp A→B at 90 min": 0.79, "Papp B→A at 90 min": 1.1, "efflux ratio at 90 min": 1.4}, {"smiles": "N#C[C@@]1(c2ccc3c(N)ncnn23)O[C@H](COC(=O)CC2CCC(F)(F)CC2)[C@@H](O)[C@H]1O", "note": "[Compound 262, ((2R,3S,4R,5R)-5-(4-aminopyrrolo[2,1-f][1,2,4]triazin-7-yl)-5-cyano-3,4-dihydroxytetrahydrofuran-2-yl)methyl 2-(4,4-difluorocyclohexyl)acetate]", "Papp A→B at 90 min": 0.91, "Papp B→A at 90 min": 4.4, "efflux ratio at 90 min": 4.8}, {"smiles": "N#C[C@@]1(c2ccc3c(N)ncnn23)O[C@H](COC(=O)CC23CC4CC(CC(C4)C2)C3)[C@@H](O)[C@H]1O", "note": "[Compound 263, ((2R,3S,4R,5R)-5-(4-aminopyrrolo[2,1-f][1,2,4]triazin-7-yl)-5-cyano-3,4-dihydroxytetrahydrofuran-2-yl)methyl 2-((3R,5R,7R)-adamantan-1-yl)acetate]", "Papp A→B at 90 min": 13, "Papp B→A at 90 min": 19, "efflux ratio at 90 min": 1.5}, {"smiles": "CCCCC(=O)Nc1ncnn2c([C@]3(C#N)O[C@H](CO)[C@@H](O)[C@H]3O)ccc12", "note": "[Compound 264, N-(7-((2R,3R,4S,5R)-2-cyano-3,4-dihydroxy-5-(hydroxymethyl)tetrahydrofuran-2-yl)pyrrolo[2,1-f][1,2,4]triazin-4-yl)pentanamide]", "Papp A→B at 90 min": 0.03, "Papp B→A at 90 min": 0.53, "efflux ratio at 90 min": 20}, {"smiles": "N#C[C@@]1(c2ccc3c(N)ncnn23)O[C@H](COC(=O)CC2CCC2)[C@@H](O)[C@H]1O", "note": "[Compound 265, ((2R,3S,4R,5R)-5-(4-aminopyrrolo[2,1-f][1,2,4]triazin-7-yl)-5-cyano-3,4-dihydroxytetrahydrofuran-2-yl)methyl 2-cyclobutylacetate]", "Papp A→B at 90 min": 0.29, "Papp B→A at 90 min": 0.36, "efflux ratio at 90 min": 1.2}, {"smiles": "N#C[C@@]1(c2ccc3c(N)ncnn23)O[C@H](COC(=O)C[C@H]2CC[C@H](N)CC2)[C@@H](O)[C@H]1O", "note": "[Compound 266, ((2R,3S,4R,5R)-5-(4-aminopyrrolo[2,1-f][1,2,4]triazin-7-yl)-5-cyano-3,4-dihydroxytetrahydrofuran-2-yl)methyl 2-((1r,4R)-4-aminocyclohexyl)acetate]", "Papp A→B at 90 min": 0.19, "Papp B→A at 90 min": 0.38, "efflux ratio at 90 min": 2}, {"smiles": "N#C[C@@]1(c2ccc3c(N)ncnn23)O[C@H](COC(=O)CC2CCNCC2)[C@@H](O)[C@H]1O", "note": "[Compound 267]", "Papp A→B at 90 min": 0.42, "Papp B→A at 90 min": 0.27, "efflux ratio at 90 min": 0.65}, {"smiles": "CS(=O)(=O)N1CCC(CC(=O)OC[C@H]2O[C@@](C#N)(c3ccc4c(N)ncnn34)[C@H](O)[C@@H]2O)CC1", "note": "[Compound 268, ((2R,3S,4R,5R)-5-(4-aminopyrrolo[2,1-f][1,2,4]triazin-7-yl)-5-cyano-3,4-dihydroxytetrahydrofuran-2-yl)methyl 2-(1-(methylsulfonyl)piperidin-4-yl)acetate]", "Papp A→B at 90 min": 0.04, "Papp B→A at 90 min": 1.8, "efflux ratio at 90 min": 45}, {"smiles": "CC(C)(C(=O)OC[C@H]1O[C@@](C#N)(c2ccc3c(N)ncnn23)[C@H](O)[C@@H]1O)C1CCCCC1", "note": "[Compound 269, ((2R,3S,4R,5R)-5-(4-aminopyrrolo[2,1-f][1,2,4]triazin-7-yl)-5-cyano-3,4-dihydroxytetrahydrofuran-2-yl)methyl 2-cyclohexyl-2-methylpropanoate]", "Papp A→B at 90 min": 15, "Papp B→A at 90 min": 20, "efflux ratio at 90 min": 1.3}, {"smiles": "N#C[C@@]1(c2ccc3c(N)ncnn23)O[C@H](COC(=O)CC2CCC(C(F)(F)F)CC2)[C@@H](O)[C@H]1O", "note": "(stereo partly drawn) [Compound 270, ((2R,3S,4R,5R)-5-(4-aminopyrrolo[2,1-f][1,2,4]triazin-7-yl)-5-cyano-3,4-dihydroxytetrahydrofuran-2-yl)methyl 2-(4-(trifluoromethyl)cyclohexyl)acetate]", "Papp A→B at 90 min": 1.9, "Papp B→A at 90 min": 6.9, "efflux ratio at 90 min": 3.7}, {"smiles": "N#C[C@@]1(c2ccc3c(N)ncnn23)O[C@H](COC(=O)CC2CCC(C(F)(F)F)CC2)[C@@H](OC(=O)CC2CCC(C(F)(F)F)CC2)[C@H]1O", "note": "(stereo partly drawn) [Compound 271, (2R,3S,4R,5R)-5-(4-aminopyrrolo[2,1-f][1,2,4]triazin-7-yl)-5-cyano-4-hydroxy-2-((2-(4-(trifluoromethyl)cyclohexyl)acetoxy)methyl)tetrahydrofuran-3-yl 2-(4-(trifluoromethyl)cyclohexyl)acetate]", "Papp A→B at 90 min": 0.06, "Papp B→A at 90 min": 0.52, "efflux ratio at 90 min": 8.7}, {"smiles": "CC1(C)CCC(CC(=O)OC[C@H]2O[C@@](C#N)(c3ccc4c(N)ncnn34)[C@H](O)[C@@H]2O)CC1", "note": "[Compound 272, ((2R,3S,4R,5R)-5-(4-aminopyrrolo[2,1-f][1,2,4]triazin-7-yl)-5-cyano-3,4-dihydroxytetrahydrofuran-2-yl)methyl 2-(4,4-dimethylcyclohexyl)acetate]", "Papp A→B at 90 min": 1.2, "Papp B→A at 90 min": 0.64, "efflux ratio at 90 min": 0.52}, {"smiles": "CC1(CC(=O)OC[C@H]2O[C@@](C#N)(c3ccc4c(N)ncnn34)[C@H](O)[C@@H]2O)CCCCC1", "note": "[Compound 273, ((2R,3S,4R,5R)-5-(4-aminopyrrolo[2,1-f][1,2,4]triazin-7-yl)-5-cyano-3,4-dihydroxytetrahydrofuran-2-yl)methyl 2-(1-methylcyclohexyl)acetate]", "Papp A→B at 90 min": 3.7, "Papp B→A at 90 min": 3.2, "efflux ratio at 90 min": 0.85}, {"smiles": "N#C[C@@]1(c2ccc3c(N)ncnn23)O[C@H](COC(=O)CC2(c3ccccc3)CCOCC2)[C@@H](O)[C@H]1O", "note": "[Compound 274, ((2R,3S,4R,5R)-5-(4-aminopyrrolo[2,1-f][1,2,4]triazin-7-yl)-5-cyano-3,4-dihydroxytetrahydrofuran-2-yl)methyl 2-(4-phenyltetrahydro-2H-pyran-4-yl)acetate]", "Papp A→B at 90 min": 0.85, "Papp B→A at 90 min": 12, "efflux ratio at 90 min": 14}, {"smiles": "C[C@@H](C(=O)OC[C@H]1O[C@@](C#N)(c2ccc3c(N)ncnn23)[C@H](O)[C@@H]1O)C1CCCCC1", "note": "[Compound 275, ((2R,3S,4R,5R)-5-(4-aminopyrrolo[2,1-f][1,2,4]triazin-7-yl)-5-cyano-3,4-dihydroxytetrahydrofuran-2-yl)methyl (R)-2-cyclohexylpropanoate]", "Papp A→B at 90 min": 11, "Papp B→A at 90 min": 16, "efflux ratio at 90 min": 1.6}, {"smiles": "CCCCC(=O)Nc1ncnn2c([C@]3(C#N)O[C@H](COC(=O)C(C)C)[C@@H](O)[C@H]3O)ccc12", "note": "[Compound 276, ((2R,3S,4R,5R)-5-cyano-3,4-dihydroxy-5-(4-pentanamidopyrrolo[2,1-f][1,2,4]triazin-7-yl)tetrahydrofuran-2-yl)methyl isobutyrate]", "Papp A→B at 90 min": 0.36, "Papp B→A at 90 min": 2.9, "efflux ratio at 90 min": 8}, {"smiles": "C[C@H]1CC[C@H](CC(=O)OC[C@H]2O[C@@](C#N)(c3ccc4c(N)ncnn34)[C@H](O)[C@@H]2O)CC1", "note": "[Compound 278, ((2R,3S,4R,5R)-5-(4-aminopyrrolo[2,1-f][1,2,4]triazin-7-yl)-5-cyano-3,4-dihydroxytetrahydrofuran-2-yl)methyl 2-((1r,4R)-4-methylcyclohexyl)acetate]", "Papp A→B at 90 min": 2.2, "Papp B→A at 90 min": 4.9, "efflux ratio at 90 min": 2.2}, {"smiles": "N#C[C@@]1(c2ccc3c(N)ncnn23)O[C@H](COC(=O)CC2CCC3(CCCC3)CC2)[C@@H](O)[C@H]1O", "note": "[Compound 279, ((2R,3S,4R,5R)-5-(4-aminopyrrolo[2,1-f][1,2,4]triazin-7-yl)-5-cyano-3,4-dihydroxytetrahydrofuran-2-yl)methyl 2-(spiro[4.5]decan-8-yl)acetate]", "Papp A→B at 90 min": 1.4, "Papp B→A at 90 min": 0.9, "efflux ratio at 90 min": 0.64}, {"smiles": "N#C[C@@]1(c2ccc3c(N)ncnn23)O[C@H](COC(=O)CC2CCS(=O)(=O)CC2)[C@@H](O)[C@H]1O", "note": "[Compound 280, ((2R,3S,4R,5R)-5-(4-aminopyrrolo[2,1-f][1,2,4]triazin-7-yl)-5-cyano-3,4-dihydroxytetrahydrofuran-2-yl)methyl 2-(1,1-dioxidotetrahydro-2H-thiopyran-4-yl)acetate]", "Papp A→B at 90 min": 0.38, "Papp B→A at 90 min": 0.91, "efflux ratio at 90 min": 2.4}]}, {"experiment": "in vitro", "assay_type": "in vitro ADME", "conditions": "human; Caco-2 monolayer, apical to basolateral, 90-minute incubation; read-out: Papp, A-B", "summary_of_the_method": "as §1", "units": {"Papp A→B at 90 min": "×10⁻⁶ cm/s"}, "values": [{"smiles": "CCCCC(=O)Nc1ncnn2c([C@]3(C#N)O[C@H](COC(=O)Cc4ccccc4)[C@@H](O)[C@H]3O)ccc12", "note": "[Compound 277, ((2R,3S,4R,5R)-5-cyano-3,4-dihydroxy-5-(4-pentanamidopyrrolo[2,1-f][1,2,4]triazin-7-yl)tetrahydrofuran-2-yl)methyl 2-phenylacetate]", "Papp A→B at 90 min": 0.47}]}, {"experiment": "in vitro", "assay_type": "in vitro ADME", "conditions": "human; Caco-2 monolayer, basolateral to apical, 90-minute incubation; read-out: Papp, B-A", "summary_of_the_method": "as §1", "units": {"Papp B→A at 90 min": "×10⁻⁶ cm/s"}, "values": [{"smiles": "CCCCC(=O)Nc1ncnn2c([C@]3(C#N)O[C@H](COC(=O)Cc4ccccc4)[C@@H](O)[C@H]3O)ccc12", "note": "[Compound 277, ((2R,3S,4R,5R)-5-cyano-3,4-dihydroxy-5-(4-pentanamidopyrrolo[2,1-f][1,2,4]triazin-7-yl)tetrahydrofuran-2-yl)methyl 2-phenylacetate]", "Papp B→A at 90 min": 5.4}]}, {"experiment": "in vitro", "assay_type": "in vitro ADME", "conditions": "human; Caco-2 monolayer; ER>2 indicates potential efflux transporter substrate; read-out: ER (efflux ratio)", "summary_of_the_method": "as §1", "values": [{"smiles": "CCCCC(=O)Nc1ncnn2c([C@]3(C#N)O[C@H](COC(=O)Cc4ccccc4)[C@@H](O)[C@H]3O)ccc12", "note": "[Compound 277, ((2R,3S,4R,5R)-5-cyano-3,4-dihydroxy-5-(4-pentanamidopyrrolo[2,1-f][1,2,4]triazin-7-yl)tetrahydrofuran-2-yl)methyl 2-phenylacetate]", "efflux ratio at 90 min": 12}]}]}
